What all share (assay type): biochemical
One assay deals with T1, Gox0313 (Gluconobacter oxydans, UniProt Q5FU50).
T1 sequence (Q5FU50 1-343): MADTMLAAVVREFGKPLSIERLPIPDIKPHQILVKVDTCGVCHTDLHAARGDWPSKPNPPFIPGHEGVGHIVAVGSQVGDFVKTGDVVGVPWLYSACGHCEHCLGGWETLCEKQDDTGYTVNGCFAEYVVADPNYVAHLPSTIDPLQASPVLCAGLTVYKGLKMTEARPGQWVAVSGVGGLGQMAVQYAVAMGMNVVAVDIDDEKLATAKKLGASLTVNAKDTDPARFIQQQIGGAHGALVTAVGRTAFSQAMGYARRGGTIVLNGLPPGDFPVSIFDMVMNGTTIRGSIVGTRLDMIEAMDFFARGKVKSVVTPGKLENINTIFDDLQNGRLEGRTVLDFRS
The assay is described as follows: Enzyme activity assay (rate of NAD(P)H decrease at 340 nm), Gox0313. The note with it: 10 mM substrate; for Specific Activity: Tab. 6, Gox0313, substrate reduction, cofactor NADH, pH 7.0, 30 °C; for Activity: Table 3, Gox0313, K-phosphate buffer pH 7.0, 0.05 mM NAD(P)H, 30 °C. The gist of the method: (§1)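 Purified enzymes assayed at 30 °C in 40 mM potassium phosphate pH 7.0 with 10 mM substrate and NAD(P)H (0.025 mM, or 0.05 mM in the standard mixture), started by adding enzyme or substrate. Activity followed as the rate of NAD(P)H decrease at 340 nm; one unit = 1 µmol pyridine nucleotide converted per min; protein measured by Bradford.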

A further assay concerns the target T2, Gox0646 (Gluconobacter oxydans, UniProt Q5FT73).
T2 sequence (Q5FT73 1-264): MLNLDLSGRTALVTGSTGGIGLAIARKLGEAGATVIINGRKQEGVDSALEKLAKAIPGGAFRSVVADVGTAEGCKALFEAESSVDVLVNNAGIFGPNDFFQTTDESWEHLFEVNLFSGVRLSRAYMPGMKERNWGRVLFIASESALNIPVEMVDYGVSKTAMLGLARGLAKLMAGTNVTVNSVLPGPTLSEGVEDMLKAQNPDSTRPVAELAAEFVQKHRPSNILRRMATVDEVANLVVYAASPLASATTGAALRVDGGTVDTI
Briefly: Enzyme activity assay (rate of NAD(P)H decrease at 340 nm), Gox0646. The note with it: 10 mM substrate; for Specific Activities: Tab. 9, GOX0646, cofactor NADPH, pH 7.0, 30 °C; for Activity: Table 3, Gox0646, K-phosphate buffer pH 7.0, 0.05 mM NAD(P)H, 30 °C. On the procedure: Measurment of enzyme activity: NADPH-dependent alpha-ketocarbonyl reductases were assayed by a routine method used for NAD(P)-linked enzymes by recording the rate of decrease of NADPH at 340 nm (ε = 6.22 mM^-1 x cm^-1)) with substrates at 30 °C. The reaction mixture (1 ml) for reduction of alpha-ketocarbonyl substrates contained 10 mM substrate, 40 mM potassium phosphate buffer pH 7.0, 0.025 mM NAD(P)H , and the enzyme. Reactions were induced by addition of enzyme or substrate. One unit of enzyme activity was defined as the amount of enzyme catalyzing the conversion of 1 µmol of pyridine nucleotide per min at 30 °C.
NADPH-dependent α-ketocarbonyl reductases were assayed by a routine method used for NAD(P)-linked enzymes by recording the rate of decrease of NADPH at 340 nm (ε = 6.22 mM^-1.cm^-1) with substrates at 30 °C. The reaction mixture (1 ml) for reduction of alpha-ketocarbonyl substrates contained 10 mM substrate, 40 mM potassium phosphate buffer pH 7.0, 0.025 mM NADPH , and the enzyme. Reactions were induced by addition of enzyme or substrate. One unit of enzyme activity was defined as the amount of enzyme catalyzing the conversion of 1 µmol of pyridine nucleotide per min at 30 °C.
For each enzyme (Gox0313, Gox0502, Gox0644, Gox0646, Gox1615, Gox2107, and Gox2684 respectively), fresh enzyme preparations were used to validate the substrate spectrum and the kinetic activity. […] Purified NAD(P)-dependent oxidoreductases were assayed at 30 °C by a routine method used for NAD(P)-linked enzymes by recording the rate of decrease of NAD(P)H at 340 nm (ε = […]) with substrates capable of reduction reactions. The standard reaction mixture (1 ml) for the reduction reactions of substrates contained 10 mM substrate, 40 mM potassium phosphate buffer (K-phosphate buffer) pH 7.0, 0.05 mM NAD(P)H, and the enzyme unless otherwise noted. Reactions were induced by addition of enzyme or substrate. One unit of enzyme activity was defined as the amount of enzyme catalyzing the conversion of 1 µmol of pyridine nucleotide per min at 30 °C. Measurement of the protein content was performed by the method of Bradford in Anal. Biochem. 72:248-254 (1976). Table 3: Summary of enzymatic activities with α-diketones, α-ketoaldehydes and /or α-ketoesters

Another assay deals with T3, Gox1615 (Gluconobacter oxydans, UniProt Q5FQJ0).
T3 sequence (Q5FQJ0 1-332): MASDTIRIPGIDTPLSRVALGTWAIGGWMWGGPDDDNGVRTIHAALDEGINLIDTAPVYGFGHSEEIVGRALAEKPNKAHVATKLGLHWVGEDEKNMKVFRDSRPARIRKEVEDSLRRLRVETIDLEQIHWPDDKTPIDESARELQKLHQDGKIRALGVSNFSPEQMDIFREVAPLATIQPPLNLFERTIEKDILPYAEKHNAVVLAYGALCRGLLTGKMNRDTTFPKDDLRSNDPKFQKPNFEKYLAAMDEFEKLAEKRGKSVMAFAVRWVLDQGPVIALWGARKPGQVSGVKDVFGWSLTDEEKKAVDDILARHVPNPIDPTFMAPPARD
Briefly: Enzyme activity assay (rate of NAD(P)H decrease at 340 nm), Gox1615. The note with it: 10 mM substrate; for Specific Activity: Tab. 5, Gox1615, cofactor NADPH, pH 7.0, 30 °C; for Activity: Table 3, Gox1615, K-phosphate buffer pH 7.0, 0.05 mM NAD(P)H, 30 °C. The essentials:
as §1

The target in another assay is Gox2107 (Gluconobacter oxydans, UniProt Q5FP53). The assay is described as follows: Enzyme activity assay (rate of NAD(P)H decrease at 340 nm), Gox2107. Conditions: 10 mM substrate; for Specific Activity: Tab. 7, Gox2107, cofactor NADPH, pH 7.0, 30 °C. The essentials:
as §1

The next assay has as its target T4, Gox0502 (Gluconobacter oxydans, UniProt Q5FTL6).
T4 sequence (Q5FTL6 1-361): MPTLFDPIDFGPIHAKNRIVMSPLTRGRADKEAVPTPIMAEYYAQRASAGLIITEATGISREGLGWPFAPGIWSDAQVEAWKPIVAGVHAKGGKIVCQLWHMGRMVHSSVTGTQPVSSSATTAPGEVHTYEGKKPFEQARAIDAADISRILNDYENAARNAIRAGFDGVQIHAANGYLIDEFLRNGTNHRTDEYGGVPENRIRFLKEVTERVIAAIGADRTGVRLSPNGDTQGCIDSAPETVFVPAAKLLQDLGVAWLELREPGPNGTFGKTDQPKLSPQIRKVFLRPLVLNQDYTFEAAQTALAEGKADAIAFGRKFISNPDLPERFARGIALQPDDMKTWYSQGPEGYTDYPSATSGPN
The assay is described as follows: Enzyme activity assay (rate of NAD(P)H decrease at 340 nm), Gox0502. On the set-up: Strep-tag II (N); made in house; host or cells: E. coli BL21 or E. coli DH5α (pASK-IBA5). Conditions: 10 mM substrate; for Specific Activity: Tab. 7, Gox0502, cofactor NADPH, pH 7.0, 30 °C; for Activity: Table 3, Gox0502, K-phosphate buffer pH 7.0, 0.05 mM NAD(P)H, 30 °C. The gist of the method:
as §1

SMILES strings stand for the structures.

For the compound `CCCC(=O)C(C)=O` [2,3-hexanedione], the “Specific Activity” value at Gox0313 is 19.6 U/mg; at Gox1615 it was 6.5 U/mg; on Gox2107, under 0.1 U/mg; at Gox0502, 1.0 U/mg. Besides, the Activity is given as 19.6 U/mg at Gox0313, 8.0 U/mg at Gox0646 and 6.5 U/mg on Gox1615. For the same compound, the “Specific Activities” value at Gox0646 came out at 8.0 U/mg.
As to `CCC(=O)C(C)=O` [2,3-pentanedione], at Gox0313, the “Specific Activity” value was 35.9 U/mg and the Activity amounted to 35.9 U/mg. Also, at Gox0646, the “Specific Activities” value was found to be 8.0 U/mg and the Activity is 8.0 U/mg. Further, on Gox1615, the “Specific Activity” value amounted to 6.2 U/mg and the Activity is recorded as 6.2 U/mg.
For the compound `CCC(=O)C(=O)CC` [3,4-hexanedione], the “Specific Activity” value on Gox0313 is on record as 19.5 U/mg; at Gox1615, 2 U/mg; at Gox2107, under 0.1 U/mg; on Gox0502 it was 2,0 U/mg. Also, the Activity at Gox0313 is reported as 19.5 U/mg; on Gox0646, 2.0 U/mg; on Gox1615, 2.0 U/mg; at Gox0502, 2.0 U/mg. Further, the “Specific Activities” value on Gox0646 came out at 2.0 U/mg.
For the compound `CC(=O)C=O` [methylglyoxal], the “Specific Activity” value at Gox0313 is on record as 10.6 U/mg; on Gox1615 it was 19.3 U/mg; at Gox2107 it was under 0.1 U/mg; on Gox0502, 1.5 U/mg. Moreover, the Activity on Gox0313 is 10.6 U/mg; on Gox0646, 0.2 U/mg; at Gox1615, 19.3 U/mg. At Gox0646, the “Specific Activities” value turned out to be 0.2 U/mg.
For `O=CC(=O)c1ccccc1` [phenylglyoxal], the “Specific Activity” value on Gox0313 is 0.5 U/mg; at Gox1615, 19.1 U/mg; on Gox2107 it was 35.2 U/mg; on Gox0502, 15.7 U/mg. For the same compound, the Activity at Gox0313 worked out at 0.5 U/mg; at Gox1615, 19.1 U/mg; on Gox2107 (Table 3, Gox2107, K-phosphate buffer pH 7.0, 0.05 mM NAD(P)H, 30 °C), 35.2 U/mg; at Gox0502, 15.7 U/mg.

The values are drawn from patent publication EP2119770B1, “Production of alpha-oxyfunctionalized carbonyl compounds” (priority 2008, dated 2009).
